# Patent US6169181A, “Compounds useful to treat retroviral infections” (Pharmacia & Upjohn Company, priority 1998, dated 2001)
# How the values were obtained:
# HIV-1 protease = HIV-1 protease (Human immunodeficiency virus type 1 group M subtype B, UniProt P04585); assay: biochemical; conditions: Table I; read-out: HIV Protease FITC Assay Ki
# In short: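 Biotinylated, FITC-labelled peptide substrate cleaved in 0.1 M sodium acetate pH 5.5, 1.0 M NaCl, 0.05% NP-40, room temperature. Filtered labelled product read by fluorescence; nonlinear least-squares fit.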
# [1] = tested on: human T-cell lines, e.g., MT4 and H9, infected with HIV-1IIIB; assay: Retroviral replication in infected human T-cell lines; format: cell-based; conditions: MT4 and H9 cells infected with HIV-1IIIB
# Procedure: Several compounds of the present invention, such as N-[3-(1-[5,6-Dihydro-4-hydroxy-2-oxo-6-(2-phenethyl)-6-propyl-2H-pyran-3-yl]-2,2-dimethylpropyl)phenyl]-1-methyl-1H-imidazole-4-sulfonamide were tested in known human cell lines, such as human T-cell lines, e.g., MT4 and H9, which were infected with HIV-1IIIB, and certain of these compounds were further tested in peripheral blood mononuclear cells (PBMC), which were infected with HIV-1JRCSF (a clinical isolate).
smiles,measurement,setting,value
"CCCC1(CCc2ccccc2)CC(O)=C(C(c2cccc(NS(=O)(=O)c3cn(C)cn3)c2)C(C)(C)C)C(=O)O1 (centres unmarked) [Example 250, N-[3-(1-[5,6-Dihydro-4-hydroxy-2-oxo-6-(2-phenethyl)-6-propyl-2H-pyran-3-yl]-2,2-dimethylpropyl)phenyl]-1-methyl-1H-imidazole-4-sulfonamide]",Ki,HIV-1 protease,1.2 nM
same,inhibition of retroviral replication,[1],inhibit retroviral replication
